{"source": "ChEMBL document CHEMBL5236590", "about": "“Discovery of Novel N-(5-(Pyridin-3-yl)-1H-indazol-3-yl)benzamide Derivatives as Potent Cyclin-Dependent Kinase 7 Inhibitors for the Treatment of Autosomal Dominant Polycystic Kidney Disease” (J Med Chem, 2022)", "key": {"[1]": {"assay": "Observed volume of distribution at steady state in ICR mouse at 5 mg/kg, iv single dose measured upto 24 hrs", "format": "ADME, organism-based", "conditions": "in vivo, read-out: Vdss"}, "[2]": {"molecular_target": "Vascular endothelial growth factor receptor 2 (Homo sapiens) (UniProt P35968)", "assay": "Inhibition of human partial length wild type KDR (R787/P1253) expressed in mammalian system at 1 uM by KINOMEscan analysis relative to control"}, "[3]": {"molecular_target": "Serine/threonine-protein kinase Chk1 (Homo sapiens) (UniProt O14757)", "sequence (O14757 whole entry)": "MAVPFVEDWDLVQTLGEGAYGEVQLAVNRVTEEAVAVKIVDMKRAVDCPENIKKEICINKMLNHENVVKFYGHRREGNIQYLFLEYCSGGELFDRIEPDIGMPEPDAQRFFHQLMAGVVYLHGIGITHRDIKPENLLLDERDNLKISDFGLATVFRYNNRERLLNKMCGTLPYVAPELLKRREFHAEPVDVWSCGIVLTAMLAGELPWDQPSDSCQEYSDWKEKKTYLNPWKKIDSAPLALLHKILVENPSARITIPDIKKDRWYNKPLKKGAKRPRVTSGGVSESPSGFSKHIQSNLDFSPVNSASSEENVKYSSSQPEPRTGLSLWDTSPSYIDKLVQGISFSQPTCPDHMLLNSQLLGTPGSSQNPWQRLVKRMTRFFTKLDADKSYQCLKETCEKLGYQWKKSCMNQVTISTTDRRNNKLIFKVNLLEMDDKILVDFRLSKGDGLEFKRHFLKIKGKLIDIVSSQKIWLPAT", "assay": "Inhibition of human partial length wild type CHK1 expressed in bacterial system at 1 uM by KINOMEscan analysis relative to control"}, "[4]": {"molecular_target": "Cyclin-dependent kinase 2 (Homo sapiens, UniProt P24941)", "assay": "Inhibition of CDK2 (unknown origin) assessed as phosphorylation of ULight 4EBP1 peptide substrate measured after 2 hrs by FRET-based LANCE Ultra KinSelect assay"}, "[5]": {"molecular_target": "Glycogen synthase kinase-3 beta (Homo sapiens) (UniProt P49841)", "assay": "Inhibition of human full length GSK3beta expressed in mammalian system at 1 uM by KINOMEscan analysis relative to control"}, "[6]": {"assay": "Half life in ICR mouse at 5 mg/kg, iv single dose measured upto 24 hrs", "format": "ADME, organism-based", "conditions": "in vivo"}, "[7]": {"molecular_target": "Mitogen-activated protein kinase 14 (Homo sapiens) (UniProt Q16539)", "assay": "Inhibition of full length human recombinant SAPK2a at 1 uM by radiometric assay"}, "[8]": {"molecular_target": "Serine/threonine-protein kinase mTOR (Homo sapiens) (UniProt P42345)", "assay": "Inhibition of human partial length wild type mTOR (L1382/W2549) expressed in mammalian system at 1 uM by KINOMEscan analysis relative to control"}, "Homo sapiens": {"species_on_record": "Homo sapiens", "assay": "Inhibition of PIK3 (unknown origin) at 1 uM relative to control"}, "[9]": {"molecular_target": "Cyclin-dependent kinase 7 (Homo sapiens, UniProt P50613)", "sequence (P50613 whole entry)": "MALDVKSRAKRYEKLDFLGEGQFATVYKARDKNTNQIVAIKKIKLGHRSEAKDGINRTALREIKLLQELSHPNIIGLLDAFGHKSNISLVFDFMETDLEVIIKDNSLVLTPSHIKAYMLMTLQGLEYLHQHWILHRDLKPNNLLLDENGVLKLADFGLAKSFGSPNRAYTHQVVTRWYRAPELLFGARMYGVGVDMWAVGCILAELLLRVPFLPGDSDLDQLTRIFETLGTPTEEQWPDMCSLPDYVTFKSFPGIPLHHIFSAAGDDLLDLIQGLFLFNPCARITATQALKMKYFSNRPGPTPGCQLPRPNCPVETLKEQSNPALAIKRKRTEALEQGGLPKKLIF", "assay": "Irreversible inhibition of CDK7 (unknown origin) assessed as activity measured after 3 hrs by jump dilution method"}, "[10]": {"molecular_target": "Eukaryotic elongation factor 2 kinase (Homo sapiens) (UniProt O00418)", "assay": "Inhibition of human recombinant eEF-2K at 1 uM by radiometric assay relative to control"}, "[11]": {"molecular_target": "Platelet-derived growth factor receptor beta (Homo sapiens) (UniProt P09619)", "sequence (P09619 whole entry)": "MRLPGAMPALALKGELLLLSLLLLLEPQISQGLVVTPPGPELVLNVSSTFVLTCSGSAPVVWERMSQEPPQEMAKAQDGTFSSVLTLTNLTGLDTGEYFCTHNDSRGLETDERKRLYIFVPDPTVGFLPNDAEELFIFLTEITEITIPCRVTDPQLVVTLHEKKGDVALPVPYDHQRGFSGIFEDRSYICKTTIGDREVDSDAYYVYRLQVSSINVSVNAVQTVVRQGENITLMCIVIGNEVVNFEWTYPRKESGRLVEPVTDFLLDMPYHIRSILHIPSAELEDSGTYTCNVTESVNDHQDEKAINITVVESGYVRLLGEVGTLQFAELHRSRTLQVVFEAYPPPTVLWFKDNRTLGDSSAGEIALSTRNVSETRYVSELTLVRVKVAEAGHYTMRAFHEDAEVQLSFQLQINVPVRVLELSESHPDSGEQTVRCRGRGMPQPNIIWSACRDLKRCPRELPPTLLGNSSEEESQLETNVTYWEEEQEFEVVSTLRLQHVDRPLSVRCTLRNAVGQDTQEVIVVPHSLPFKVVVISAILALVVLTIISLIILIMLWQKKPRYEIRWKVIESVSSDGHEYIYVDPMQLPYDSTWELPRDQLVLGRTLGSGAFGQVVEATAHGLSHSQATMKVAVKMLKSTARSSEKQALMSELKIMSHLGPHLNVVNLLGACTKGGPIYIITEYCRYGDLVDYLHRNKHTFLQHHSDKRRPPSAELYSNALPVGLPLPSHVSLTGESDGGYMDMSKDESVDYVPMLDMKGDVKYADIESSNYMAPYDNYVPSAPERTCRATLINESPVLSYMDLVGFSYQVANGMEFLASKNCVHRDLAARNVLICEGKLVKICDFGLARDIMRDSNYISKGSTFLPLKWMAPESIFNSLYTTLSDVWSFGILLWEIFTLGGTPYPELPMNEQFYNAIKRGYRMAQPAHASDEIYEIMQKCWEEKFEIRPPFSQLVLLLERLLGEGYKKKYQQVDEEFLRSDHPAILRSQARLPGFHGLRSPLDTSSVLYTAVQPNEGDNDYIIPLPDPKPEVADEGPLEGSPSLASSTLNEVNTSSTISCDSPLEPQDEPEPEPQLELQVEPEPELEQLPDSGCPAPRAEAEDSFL", "assay": "Inhibition of human partial length wild type PDGFRbeta V582/Y1009 expressed in bacterial system at 1 uM by KINOMEscan analysis relative to control"}, "[12]": {"assay": "Observed MRT (infinitive) in ICR mouse at 5 mg/kg, iv single dose measured upto 24 hrs", "format": "ADME, organism-based", "conditions": "in vivo"}, "[13]": {"assay": "AUClast in ICR mouse at 5 mg/kg, iv single dose measured upto 24 hrs", "format": "ADME, organism-based", "parameters": "dose 5 mg/kg, time < 24 hrs, route iv", "conditions": "in vivo"}, "[14]": {"molecular_target": "Serine/threonine-protein kinase 17A (Homo sapiens) (UniProt Q9UEE5)", "assay": "Inhibition of human partial length wild type DRAK1 expressed in bacterial system at 1 uM by KINOMEscan analysis relative to control"}, "[15]": {"molecular_target": "Serine/threonine-protein kinase PAK 2 (Homo sapiens) (UniProt Q13177)", "assay": "Inhibition of human partial length wild type PAK2 (P151/R525) expressed in bacterial system at 1 uM by KINOMEscan analysis relative to control"}, "[16]": {"assay": "Tmax in ICR mouse at 5 mg/kg, sc single dose measured upto 24 hrs", "format": "ADME, organism-based", "conditions": "in vivo"}, "[17]": {"molecular_target": "5'-AMP-activated protein kinase catalytic subunit alpha-1 (Homo sapiens) (UniProt Q13131)", "sequence (Q13131 whole entry, looked up)": "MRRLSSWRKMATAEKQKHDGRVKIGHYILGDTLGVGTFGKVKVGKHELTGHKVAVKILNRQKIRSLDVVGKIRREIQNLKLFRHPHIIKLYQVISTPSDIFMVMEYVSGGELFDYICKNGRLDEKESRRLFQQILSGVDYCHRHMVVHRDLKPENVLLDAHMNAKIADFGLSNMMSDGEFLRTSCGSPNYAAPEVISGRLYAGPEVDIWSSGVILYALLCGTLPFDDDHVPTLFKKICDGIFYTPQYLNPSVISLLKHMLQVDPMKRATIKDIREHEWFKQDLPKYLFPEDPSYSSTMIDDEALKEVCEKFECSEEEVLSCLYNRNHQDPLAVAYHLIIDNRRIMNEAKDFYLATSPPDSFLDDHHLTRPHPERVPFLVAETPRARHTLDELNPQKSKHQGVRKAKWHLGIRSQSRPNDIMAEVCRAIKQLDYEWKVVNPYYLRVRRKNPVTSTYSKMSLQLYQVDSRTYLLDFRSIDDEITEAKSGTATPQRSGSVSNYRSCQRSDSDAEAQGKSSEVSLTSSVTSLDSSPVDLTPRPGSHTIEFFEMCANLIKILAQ", "assay": "Inhibition of human partial length AMPKalphal (M1/E306) expressed in bacterial system at 1 uM by KINOMEscan analysis relative to control"}, "[18]": {"molecular_target": "MAP kinase-activated protein kinase 2 (Homo sapiens) (UniProt P49137)", "sequence (P49137 whole entry, looked up)": "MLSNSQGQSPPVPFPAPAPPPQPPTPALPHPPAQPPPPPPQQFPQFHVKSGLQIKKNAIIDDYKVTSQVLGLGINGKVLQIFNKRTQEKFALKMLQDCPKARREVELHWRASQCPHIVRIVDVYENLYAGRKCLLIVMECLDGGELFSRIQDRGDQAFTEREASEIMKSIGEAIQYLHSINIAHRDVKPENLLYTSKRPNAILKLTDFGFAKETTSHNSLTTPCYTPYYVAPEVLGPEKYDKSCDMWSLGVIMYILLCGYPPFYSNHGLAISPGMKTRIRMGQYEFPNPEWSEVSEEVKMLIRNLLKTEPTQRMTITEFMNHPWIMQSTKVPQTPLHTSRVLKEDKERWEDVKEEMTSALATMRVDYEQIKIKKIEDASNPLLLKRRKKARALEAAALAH", "assay": "Inhibition of human partial length wild type MAPKAP-K2 expressed in bacterial system at 1 uM by KINOMEscan analysis relative to control"}, "[19]": {"molecular_target": "Tyrosine-protein kinase Fyn (Homo sapiens) (UniProt P06241)", "assay": "Inhibition of human partial length wild type Fyn (T243/L534) expressed in bacterial system at 1 uM by KINOMEscan analysis relative to control"}, "[20]": {"molecular_target": "Calcium/calmodulin-dependent protein kinase type 1 (Homo sapiens) (UniProt Q14012)", "sequence (Q14012 whole entry, looked up)": "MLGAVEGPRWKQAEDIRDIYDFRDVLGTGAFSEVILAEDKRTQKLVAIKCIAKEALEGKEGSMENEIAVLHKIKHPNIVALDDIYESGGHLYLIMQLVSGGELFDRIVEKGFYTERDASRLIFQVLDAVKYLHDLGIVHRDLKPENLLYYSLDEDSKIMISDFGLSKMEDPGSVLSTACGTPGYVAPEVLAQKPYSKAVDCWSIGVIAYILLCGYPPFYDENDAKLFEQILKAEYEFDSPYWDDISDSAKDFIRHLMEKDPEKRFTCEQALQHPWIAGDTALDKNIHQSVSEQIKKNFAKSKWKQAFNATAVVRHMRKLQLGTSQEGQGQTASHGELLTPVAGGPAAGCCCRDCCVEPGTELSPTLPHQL", "assay": "Inhibition of human partial length wild type CaMKI expressed in bacterial system at 1 uM by KINOMEscan analysis relative to control"}, "MDCK": {"system": "MDCK", "assay": "Inhibition of cyst formation in in-vitro MDCK cyst model assessed as decrease in cyst diameter at 1 to 3 uM measured for 4 to […]", "format": "functional, cell-based", "conditions": "Canis lupus familiaris, dose 1-3 µM, time lower 4.0 hrs"}, "THP-1": {"system": "THP-1", "assay": "Cytotoxicity against human THP-1 cells assessed as cell viability measured after 24 hrs by CCK-8 assay", "format": "functional, cell-based", "conditions": "THP-1, 24 h"}, "Mus musculus": {"species_on_record": "Mus musculus", "assay": "Suppression of cyst formation in C57BL/6 mouse embryonic kidney cyst model at 1 to 3 uM measured for 4 to 12 […]", "format": "functional, organism-based", "conditions": "dose 1-3 µM, time 4-12 hrs"}, "[21]": {"molecular_target": "Serine/threonine-protein kinase 4 (Homo sapiens) (UniProt Q13043)", "assay": "Inhibition of human full length wild type MST1 expressed in mammalian system at 1 uM by KINOMEscan analysis relative to control"}, "[22]": {"molecular_target": "MAP kinase-interacting serine/threonine-protein kinase 2 (Homo sapiens) (UniProt Q9HBH9)", "assay": "Inhibition of human partial length wild type Mnk2 (G63/S388) expressed in mammalian system at 1 uM by KINOMEscan analysis relative to control"}, "[23]": {"molecular_target": "Serine/threonine-protein kinase 10 (Homo sapiens) (UniProt O94804)", "assay": "Inhibition of human partial length wild type LOK (E16/V314) expressed in bacterial system at 1 uM by KINOMEscan analysis relative to control"}, "[24]": {"assay": "Observed clearance in ICR mouse at 5 mg/kg, iv single dose measured upto 24 hrs", "format": "ADME, organism-based", "conditions": "in vivo"}, "[25]": {"molecular_target": "Ephrin type-B receptor 4 (Homo sapiens) (UniProt P54760)", "assay": "Inhibition of human partial length wild type EphB4 (H585/G892) expressed in bacterial system at 1 uM by KINOMEscan analysis relative to control"}, "[26]": {"molecular_target": "Serine/threonine-protein kinase pim-1 (Homo sapiens) (UniProt P11309)", "sequence (P11309 whole entry, looked up)": "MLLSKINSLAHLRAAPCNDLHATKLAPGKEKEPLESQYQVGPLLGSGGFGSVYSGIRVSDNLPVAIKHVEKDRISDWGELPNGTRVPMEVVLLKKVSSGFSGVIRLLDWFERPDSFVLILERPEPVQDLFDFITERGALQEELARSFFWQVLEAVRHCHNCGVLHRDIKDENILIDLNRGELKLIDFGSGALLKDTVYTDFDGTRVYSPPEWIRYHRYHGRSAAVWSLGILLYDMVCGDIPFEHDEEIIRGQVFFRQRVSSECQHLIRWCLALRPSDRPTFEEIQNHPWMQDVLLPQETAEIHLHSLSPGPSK", "assay": "Inhibition of human partial length wild type Pim-1 (M1/E291) expressed in bacterial system at 1 uM by KINOMEscan analysis relative to control"}, "[27]": {"molecular_target": "Protein kinase C theta type (Homo sapiens) (UniProt Q04759)", "assay": "Inhibition of human partial length TPKCtheta (L350/S706) expressed in bacterial system at 1 uM by KINOMEscan analysis relative to control"}, "[28]": {"molecular_target": "cAMP-dependent protein kinase catalytic subunit alpha (Homo sapiens) (UniProt P17612)", "assay": "Inhibition of human recombinant PKA expressed in Escherichia coli at 1 uM by KINOMEscan analysis relative to control"}, "[29]": {"molecular_target": "Insulin-like growth factor 1 receptor (Homo sapiens) (UniProt P08069)", "sequence (P08069 31-736 limits assumed)": "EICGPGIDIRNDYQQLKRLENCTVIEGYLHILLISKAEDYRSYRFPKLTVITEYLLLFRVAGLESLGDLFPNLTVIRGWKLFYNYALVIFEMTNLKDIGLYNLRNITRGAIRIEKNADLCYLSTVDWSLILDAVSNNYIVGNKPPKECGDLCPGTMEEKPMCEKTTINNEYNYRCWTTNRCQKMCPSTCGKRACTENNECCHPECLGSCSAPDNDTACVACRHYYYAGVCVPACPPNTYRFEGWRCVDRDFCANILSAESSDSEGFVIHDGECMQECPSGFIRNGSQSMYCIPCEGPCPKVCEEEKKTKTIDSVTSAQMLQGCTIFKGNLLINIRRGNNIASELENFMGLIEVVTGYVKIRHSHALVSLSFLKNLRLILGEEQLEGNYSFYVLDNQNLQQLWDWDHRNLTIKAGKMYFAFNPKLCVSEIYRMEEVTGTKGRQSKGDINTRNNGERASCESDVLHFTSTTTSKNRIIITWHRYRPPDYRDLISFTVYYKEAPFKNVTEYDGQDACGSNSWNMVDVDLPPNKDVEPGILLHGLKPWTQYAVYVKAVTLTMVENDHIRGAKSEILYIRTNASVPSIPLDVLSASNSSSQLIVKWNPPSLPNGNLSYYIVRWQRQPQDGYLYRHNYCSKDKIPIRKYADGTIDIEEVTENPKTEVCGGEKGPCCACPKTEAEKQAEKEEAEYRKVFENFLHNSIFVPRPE", "sequence (P08069 741-1367 limits assumed)": "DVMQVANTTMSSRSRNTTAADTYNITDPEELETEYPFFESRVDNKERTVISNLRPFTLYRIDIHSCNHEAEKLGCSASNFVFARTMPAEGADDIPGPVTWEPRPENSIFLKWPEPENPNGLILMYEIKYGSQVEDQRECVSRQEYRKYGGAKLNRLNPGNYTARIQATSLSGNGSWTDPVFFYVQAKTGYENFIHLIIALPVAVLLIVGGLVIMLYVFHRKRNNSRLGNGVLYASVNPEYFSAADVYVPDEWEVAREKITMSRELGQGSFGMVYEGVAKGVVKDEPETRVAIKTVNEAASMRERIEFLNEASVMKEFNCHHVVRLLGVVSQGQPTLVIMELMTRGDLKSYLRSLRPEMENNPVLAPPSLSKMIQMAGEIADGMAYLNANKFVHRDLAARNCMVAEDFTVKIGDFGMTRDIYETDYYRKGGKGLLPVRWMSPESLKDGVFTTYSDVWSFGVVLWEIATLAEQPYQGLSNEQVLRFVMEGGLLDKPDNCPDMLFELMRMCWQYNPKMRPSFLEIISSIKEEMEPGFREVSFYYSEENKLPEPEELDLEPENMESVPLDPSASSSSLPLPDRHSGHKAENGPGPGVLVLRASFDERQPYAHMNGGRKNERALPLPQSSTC", "assay": "Inhibition of human partial length wild type IGF-1R (L972/D1294) expressed in bacterial system at 1 uM by KINOMEscan analysis relative to control"}, "[30]": {"assay": "AUClast in ICR mouse at 5 mg/kg, sc single dose measured upto 24 hrs", "format": "ADME, organism-based", "parameters": "time < 24 hrs, dose 5 mg/kg, route sc", "conditions": "in vivo"}}, "note": "Active and inactive are the calls of the source. The rule behind the calls is not given here.", "data": [{"smiles": "C=CC(=O)Nc1ccc(C(=O)Nc2n[nH]c3ccc(-c4cncc(NC[C@@H](O)c5ccccc5)c4)cc23)cc1", "values": [{"measurement": "Vd", "setting": "[1]", "value": 1.28, "unit": "L/kg"}, {"measurement": "inhibition", "setting": "[2]", "value": 63, "unit": "%"}, {"measurement": "inhibition", "setting": "[3]", "value": "< 50", "unit": "%"}, {"measurement": "IC50", "setting": "[4]", "value": 0.823, "unit": "µM"}, {"measurement": "inhibition", "setting": "[5]", "value": 99, "unit": "%"}, {"measurement": "half-life", "setting": "[6]", "value": 18, "unit": "h"}, {"measurement": "inhibition", "setting": "[7]", "value": "< 50", "unit": "%"}, {"measurement": "inhibition", "setting": "[8]", "value": "< 50", "unit": "%"}, {"measurement": "inhibition", "setting": "Homo sapiens", "value": "< 50", "unit": "%"}, {"measurement": "inhibition", "setting": "[9]", "value": "Active"}, {"measurement": "inhibition", "setting": "[10]", "value": "< 50", "unit": "%"}, {"measurement": "inhibition", "setting": "[11]", "value": "< 50", "unit": "%"}, {"measurement": "MRT inf", "setting": "[12]", "value": 10, "unit": "h"}, {"measurement": "AUC(0-t) at 24 h", "setting": "[13]", "value": 26900, "unit": "ng·h/mL"}, {"measurement": "inhibition", "setting": "[14]", "value": 66, "unit": "%"}, {"measurement": "inhibition", "setting": "[15]", "value": "< 50", "unit": "%"}, {"measurement": "Tmax", "setting": "[16]", "value": 1, "unit": "h"}, {"measurement": "inhibition", "setting": "[17]", "value": 79, "unit": "%"}, {"measurement": "inhibition", "setting": "[18]", "value": "< 50", "unit": "%"}, {"measurement": "inhibition", "setting": "[19]", "value": "< 50", "unit": "%"}, {"measurement": "inhibition", "setting": "[20]", "value": "< 50", "unit": "%"}, {"measurement": "inhibition", "setting": "MDCK", "value": "Dose-Dependent Effect"}, {"measurement": "IC50", "setting": "THP-1", "value": 13, "unit": "µM"}, {"measurement": "inhibition", "setting": "Mus musculus", "value": "Dose-Dependent Effect"}, {"measurement": "inhibition", "setting": "[21]", "value": "< 50", "unit": "%"}, {"measurement": "inhibition", "setting": "[22]", "value": "< 50", "unit": "%"}, {"measurement": "inhibition", "setting": "[23]", "value": "< 50", "unit": "%"}, {"measurement": "clearance", "setting": "[24]", "value": 3, "unit": "mL/min/kg"}, {"measurement": "inhibition", "setting": "[25]", "value": "< 50", "unit": "%"}, {"measurement": "inhibition", "setting": "[26]", "value": 57, "unit": "%"}, {"measurement": "inhibition", "setting": "[27]", "value": 74, "unit": "%"}, {"measurement": "inhibition", "setting": "[28]", "value": "< 50", "unit": "%"}, {"measurement": "inhibition", "setting": "[29]", "value": "< 50", "unit": "%"}, {"measurement": "AUC(0-t) at 24 h", "setting": "[30]", "value": 17300, "unit": "ng·h/mL"}]}]}
